What all share (assay type): cell-based
For one series, the system named is xpt-G17 riboswitch. Kind of series: Luciferase reporter assay, xpt-G17 riboswitch, transfected HEK 293 cells. The note with it: for fold induction at 100 µM: HEK293, xpt-G17 riboswitch; for response of guanine riboswitch xpt-G17 to compound (FIG. 1e): Prestwick library at 100 μM; for Fold Induction of luciferase activity: 100 µM. The text has this: (§1) A truncated human beta-globin intron sequence was synthesized and inserted in the coding sequence of a firefly luciferase gene. A mutant human DHFR exon 2 was synthesized and inserted in the middle of this truncated beta-globin intron sequence using Golden gate cloning strategy. Aptamers including xpt-G/A^1, ydhl-G/A^2, yxj^3, add^4, gdg6-G/A^5 (citations for the aptamers are incorporated herein by reference) were synthesized as oligonucleotides (“oligos”) with 4 nucleotide overhang at the 5′ end that are complementary to two different BsaI sites individually (IDT), annealed and ligated to BsaI-digested mDHFR-Luci-acceptor vector.
(§2) 3.5×10^4 HEK 293 cells were plated in a 96-well flat bottom plate the day before transfection. Plasmid DNA (500 ng) was added to a tube or a 96-well U-bottom plate. Separately, TransIT-293 reagent (Mirus; 1.4 μL) was added to 50 μL Opti-mem I media (Life Technologies), and allowed to sit for 5 minutes at room temperature (RT). Then, 50 μL of this diluted transfection reagent was added to the DNA, mixed, and incubated at RT for 20 min. Finally, 7 μL of this solution was added to a well of cells in the 96-well plate.
(§3) 24 hours after media change, plates were removed from the incubator, and equilibrated to RT for several minutes on a lab bench, then aspirated. Glo-lysis buffer (Promega, 100 μL, RT) was added, and the plates maintained at RT for at least 5 minutes. Then, the well contents were mixed by 50 μL trituration, and 20 μL of each sample was mixed with 20 μL of bright-glo reagent (Promega) that had been diluted to 10% in glo-lysis buffer. 96 wells were spaced on an opaque white 384-well plate. Following a 5 min incubation at RT, luminescence was measured using a Tecan machine with 500 mSec read time. The luciferase activity was expressed as mean relative light unit (RLU)±S.D., and fold induction was calculated as the luciferase activity obtained with guanine treatment divided by luciferase activity obtained without guanine treatment.
In general terms: In a reporter assay the amount or activity of a reporter protein is the signal.

A further series concerns ydhl-G8 riboswitch. The experiment in a line: Luciferase reporter assay, ydhl-G8 riboswitch, transfected HEK 293 cells. As to conditions: Homo sapiens.
Description: as §1
(§4) 3.5×10^4 HEK 293 cells were plated in a 96-well flat bottom plate the day before transfection. Plasmid DNA (500 ng) was added to a tube or a 96-well U-bottom plate. […] Then, 50 μL of this diluted transfection reagent was added to the DNA, mixed, and incubated at RT for 20 min. Finally, 7 μL of this solution was added to a well of cells in the 96-well plate.
as §3

The subject of another series is add-G6 riboswitch. Kind of series: cells. As to conditions: for fold induction at 100 µM: Homo sapiens.
Description: as §1, §4
as §3, with “The luciferase activity was expressed as mean relative light unit (RLU)±S.D., and fold induction was calculated as the luciferase activity obtained with guanine treatment divided by luciferase activity obtained without guanine treatment.” left out

The test system of a further series is gdg6-A8 riboswitch. The experiment in a line: Luciferase reporter assay, gdg6-A8 riboswitch, transfected HEK 293 cells. The note with it: for fold induction at 100 µM: Homo sapiens, HEK293.
Description: (§5) Riboswitches were constructed as described in PCT/US2016/016234 (in particular Examples 3 to 6), incorporated herein by reference. A truncated human beta-globin intron sequence was synthesized and inserted in the coding sequence of a firefly luciferase gene. A mutant human DHFR exon 2 was synthesized and inserted in the middle of this truncated beta-globin intron sequence using Golden gate cloning strategy. Aptamers including xpt-G/A^1, ydhl-G/A^2, yxj^3, add^4, gdg6-G/A^5 (citations for the aptamers are incorporated herein by reference) were synthesized as oligonucleotides (“oligos”) with 4 nucleotide overhang at the 5′ end that are complementary to two different BsaI sites individually (IDT), annealed and ligated to BsaI-digested mDHFR-Luci-acceptor vector.
as §2, §3

The subject of the next series is gdg6-G8 riboswitch. The experiment in a line: Luciferase reporter assay, gdg6-G8 riboswitch, transfected HEK 293 cells. As to conditions: gdg6-G8 riboswitch, Prestwick library compounds at 100 μM, HEK 293; for fold induction at 100 µM: Homo sapiens, HEK293.
Description: as §5, §2, §3

[1] abbreviates: Homo sapiens, Prestwick library compounds at 100 μM, HEK 293, preliminary screen.
[2] abbreviates: HEK293, read-out: Fold Induction of luciferase activity.
The mark [3] stands for this setting: HEK293, add-G6 riboswitch, Prestwick library compounds at 100 μM, HEK 293, read-out: Fold Induction of luciferase activity.
Setting [4] is: add-G6 riboswitch, Prestwick library compounds at 100 μM, HEK 293.
Where [5] appears, read: gdg6-A8 riboswitch, Prestwick library compounds at 100 μM, HEK 293.

Structures can show the parent of a compound that is named as a salt. Where two headings read alike, the source gives them in different places.

`Nc1ncnc2c1ncn2[C@@H]1O[C@H](COP(=O)(O)O)[C@@H](O)[C@H]1O.O` [Adenosine 5′-monophosphate monohydrate]: the fold induction at 100 µM in the series on xpt-G17 riboswitch (setting [1]) stood at 28.4; with ydhl-G8 riboswitch (setting [2]), 5.9; in the series with add-G6 riboswitch (setting [2]), 9.4. The “response of guanine riboswitch xpt-G17 to compound (FIG. 1e)” value (“response of guanine riboswitch xpt-G17” for short) with xpt-G17 riboswitch (preliminary screen) is listed as “responded”.
For the molecule `CN1CCCC(n2nc(Cc3ccc(Cl)cc3)c3ccccc3c2=O)CC1` (stereo not shown) [Azelastine hydrochloride], the fold induction at 100 µM in the series with ydhl-G8 riboswitch (HEK293, ydhl-G8 riboswitch, Prestwick library compounds at 100 μM, HEK 293, read-out: Fold Induction of luciferase activity) was 3.
As for `NC(=NCc1ccccc1)NC(=O)c1nc(Cl)c(N)nc1N` [Benzamil hydrochloride], in the series on add-G6 riboswitch (setting [3]), the fold induction at 100 µM came to 3.
On the same count and under the same terms, the value for `CC(C)COCC(CN(Cc1ccccc1)c1ccccc1)N1CCCC1` (stereo not shown) [Bepridil hydrochloride] was 4.4.
Regarding `CC[C@@]1(O)C(=O)OCc2c1cc1n(c2=O)Cc2cc3ccccc3nc2-1` [Camptothecine (S, +)], the “Fold Induction of luciferase activity” value in the series on add-G6 riboswitch (setting [4]) was 5.7 fold.
As to `CC(=O)O[C@]1(C(C)=O)CC[C@H]2[C@@H]3C=C(Cl)C4=CC(=O)CC[C@]4(C)[C@H]3CC[C@@]21C` [Chlormadinone acetate], the fold induction at 100 µM was determined as 10.3 in the series on xpt-G17 riboswitch (setting [1]), 10.4 in the series on ydhl-G8 riboswitch (setting [2]) and 26.1 with add-G6 riboswitch (setting [3]). Besides, the “response of guanine riboswitch xpt-G17” value in the series on xpt-G17 riboswitch (preliminary screen) is “responded”.
For the molecule `CN/C(=N/CCSCc1nc[nH]c1C)NC#N` [Cimetidine], the fold induction at 100 µM in the series on gdg6-A8 riboswitch (setting [5]) was found to be 3.
In the case of `C#C[C@]1(O)CC[C@H]2[C@@H]3CCC4=Cc5oncc5C[C@]4(C)[C@H]3CC[C@@]21C` [Danazol], in the series with add-G6 riboswitch (setting [3]), the fold induction at 100 µM amounted to 3.7.
In the series with gdg6-A8 riboswitch (setting [5]), `C/C=C(/C(=C/C)c1ccc(O)cc1)c1ccc(O)cc1` [Dienestrol] yielded a fold induction at 100 µM of 4.3.
Same read-out and setting: with `O=C(Nc1ccccc1)OCC(CN1CCCCC1)OC(=O)Nc1ccccc1` (stereo not shown) [Diperodon hydrochloride] the figure was 3.
As to `C[C@]12CC[C@@H]3c4ccc(O)cc4CC[C@H]3[C@@H]1C[C@@H](O)[C@@H]2O` [Estriol], in the series with gdg6-G8 riboswitch, the fold induction at 100 µM was 4.3.
Regarding `O=C(OCCOCCO)c1ccccc1Nc1cccc(C(F)(F)F)c1` [Etofenamate], the fold induction at 100 µM in the series with xpt-G17 riboswitch (setting [1]) was 7.5; with ydhl-G8 riboswitch (setting [2]) it was 4.8; with add-G6 riboswitch (setting [3]), 5.1.
`Fc1ccc(C(c2ccc(F)cc2)N2CCN(C/C=C/c3ccccc3)CC2)cc1` [Flunarizine dihydrochloride]: the fold induction at 100 µM in the series with add-G6 riboswitch (setting [3]) was determined as 4.7.
Regarding `Clc1cc(Cl)c(OCC#CI)cc1Cl` [Haloprogin], the fold induction at 100 µM in the series on xpt-G17 riboswitch (setting [1]) turned out to be 5.1; with add-G6 riboswitch (setting [3]), 5.9.
Regarding `C#C[C@]1(O)CC[C@H]2[C@@H]3CCC4=CCCC[C@@H]4[C@H]3CC[C@@]21C` [Lynestrenol], the fold induction at 100 µM in the series on add-G6 riboswitch (setting [3]) was 3.8.
Regarding `COC(=O)Nc1nc2ccc(SC(C)C)cc2[nH]1` [Methiazole], the “Fold Induction of luciferase activity” value with gdg6-G8 riboswitch was determined as 3.3 fold; with gdg6-A8 riboswitch (setting [5]) it was 3.8 fold.
As to `O=C(COc1ccccc1)Nc1nc2nc[nH]c2c(=O)[nH]1` [N2-Phenoxyacetyl guanine], the fold induction at 500 µM in the series on xpt-G17 riboswitch (Homo sapiens, HEK293, 24 h, xpt-G17 construct, 500 μM concentration, FIG. 1c, 1d, read-out: fold induction of luciferase activity by guanine analogs (N2 compounds)) is 1300.
`CNc1ncnc2c1ncn2[C@@H]1O[C@H](CO)[C@@H](O)[C@H]1O` [N6-methyladenosine]: the fold induction at 100 µM in the series with xpt-G17 riboswitch (setting [1]) was 30.7; in the series with ydhl-G8 riboswitch (setting [2]), 10.7; in the series on add-G6 riboswitch (setting [3]), 20.8. Besides, in the series on xpt-G17 riboswitch (preliminary screen), the “response of guanine riboswitch xpt-G17” value is recorded as “responded”.
Turning to `NC(=O)c1ccc[n+]([C@@H]2O[C@H](COP(=O)([O-])OP(=O)(O)OC[C@H]3O[C@@H](n4cnc5c(N)ncnc54)[C@H](O)[C@@H]3O)[C@@H](O)[C@H]2O)c1` [Nadide], the fold induction at 100 µM in the series with xpt-G17 riboswitch (setting [1]) was about 40; with ydhl-G8 riboswitch (setting [2]), 11.7; in the series with add-G6 riboswitch (setting [3]) it was 30.8. Besides, the “response of guanine riboswitch xpt-G17” value in the series on xpt-G17 riboswitch (preliminary screen) is recorded as “responded”. Further, the “Fold Induction of luciferase activity” value in the series on xpt-G17 riboswitch (xpt-G17 riboswitch, Prestwick library compounds at 100 μM, HEK 293, preliminary screen) turned out to be 40.9 fold.
As for `O=C(Nc1ccc([N+](=O)[O-])cc1Cl)c1cc(Cl)ccc1O` [Niclosamide], in the series with add-G6 riboswitch (setting [3]), the fold induction at 100 µM was 3.
Still for that read-out and setting: the value for `CC(=O)O[C@]1(C(C)=O)CC[C@H]2[C@@H]3C=C(C)C4=CC(=O)CC[C@@H]4[C@H]3CC[C@@]21C` [Nomegestrol acetate] was 3.5.
Molecule `CC(C)(C)NC[C@H](O)COc1ccccc1C1CCCC1` [Penbutolol sulfate] displayed a fold induction at 100 µM in the series on gdg6-G8 riboswitch of 3.3.
For the molecule `CC(=O)[C@H]1CC[C@H]2[C@@H]3CCC4=CC(=O)CC[C@]4(C)[C@H]3CC[C@]12C` [Progesterone], the fold induction at 100 µM with xpt-G17 riboswitch (setting [1]) came to 12; with add-G6 riboswitch (setting [3]), 6. Besides, the “response of guanine riboswitch xpt-G17” value with xpt-G17 riboswitch (preliminary screen) is given as “responded”.
On to `CNCCCC1c2ccccc2C=Cc2ccccc21` [Protriptyline hydrochloride], for which the fold induction at 100 µM with add-G6 riboswitch (setting [3]) worked out at 5.
On to `CN1CCc2cccc3c2[C@H]1Cc1ccc(O)c(O)c1-3.CN1CCc2cccc3c2[C@H]1Cc1ccc(O)c(O)c1-3.Cl.Cl.O` [R(−)Apomorphine hydrochloride hemihydrate], for which the “Fold Induction of luciferase activity” value in the series with add-G6 riboswitch (setting [4]) turned out to be 3.4 fold.
`Clc1ccc(C(Cn2ccnc2)OCc2csc3c(Cl)cccc23)c(Cl)c1` (stereo not shown) [Sertaconazole Nitrate]: the fold induction at 100 µM in the series on add-G6 riboswitch (setting [3]) worked out at 6.5.
Turning to `[H]/N=C(/N)NS(=O)(=O)c1ccc(N)cc1` [Sulfaguanidine], in the series with ydhl-G8 riboswitch (setting [2]), the fold induction at 100 µM worked out at 13.9.
As for `COc1ccc2[nH]c([S+]([O-])Cc3ncc(C)c(OC)c3C)nc2n1` (stereo not shown) [Tenatoprazole], in the series on xpt-G17 riboswitch (setting [1]), the fold induction at 100 µM was 3.2.
As to `CCC(=O)O[C@H]1CC[C@H]2[C@@H]3CCC4=CC(=O)CC[C@]4(C)[C@H]3CC[C@]12C` [Testosterone propionate], the fold induction at 100 µM in the series on xpt-G17 riboswitch (setting [1]) came out at 29; in the series on add-G6 riboswitch (setting [2]), 8.8. The “response of guanine riboswitch xpt-G17” value in the series on xpt-G17 riboswitch (preliminary screen) is “responded”.
Regarding `CCCCNc1ccc(C(=O)OCCN(C)C)cc1` [Tetracaine hydrochloride], the fold induction at 100 µM with ydhl-G8 riboswitch (setting [2]) is 3.6.
For the molecule `Nc1nc2nc[nH]c2c(=S)[nH]1` [Thioguanine], the “response of guanine riboswitch xpt-G17” value in the series with xpt-G17 riboswitch (preliminary screen) is “responded”.
With `CN(C)CCOC1=Cc2ccccc2Sc2ccc(Cl)cc21` [Zotepine], in the series on xpt-G17 riboswitch (setting [1]), the fold induction at 100 µM was found to be 4.3.
Regarding Avermectin B1, the “Fold Induction of luciferase activity” value in the series with add-G6 riboswitch (setting [4]) came to 11.8 fold.
Regarding Meclocycline sulfosalicylate, in the series on add-G6 riboswitch (setting [4]), the “Fold Induction of luciferase activity” value was determined as 3.4 fold.
Consider Methotrimeprazine maleate salt, for which the “Fold Induction of luciferase activity” value with gdg6-A8 riboswitch (100 µM) is reported as 5.0 fold.
Regarding Tyloxapol, the “Fold Induction of luciferase activity” value with xpt-G17 riboswitch is recorded as 16.2 fold. For the same molecule, the “response of guanine riboswitch xpt-G17” value with xpt-G17 riboswitch (preliminary screen) is recorded as “responded”.

Values taken from US11371077B2, “High throughput cell-based screening for aptamers” (MeiraGTx UK II Limited, priority 2016, dated 2022).
